Key:
Cytochrome P450 2C19 = Cytochrome P450 2C19 (Homo sapiens, UniProt P33261); assay: Inhibition of human CYP2C19 expressed in yeast microsomal membranes using 3-cyano-7-ethoxycoumarin as substrate measured after 10 mins by fluorescence assay; type: ADME, cell membranes, Microsomal Membrane
Cytochrome P450 3A4 = Cytochrome P450 3A4 (Homo sapiens, UniProt P08684); assay: Inhibition of human CYP3A4 expressed in yeast microsomal membranes using dibenzylfluorescein as substrate measured after 10 mins by fluorescence assay; type: ADME, cell membranes, Microsomal Membrane
Sequence of Cytochrome P450 3A4 (P08684 whole entry): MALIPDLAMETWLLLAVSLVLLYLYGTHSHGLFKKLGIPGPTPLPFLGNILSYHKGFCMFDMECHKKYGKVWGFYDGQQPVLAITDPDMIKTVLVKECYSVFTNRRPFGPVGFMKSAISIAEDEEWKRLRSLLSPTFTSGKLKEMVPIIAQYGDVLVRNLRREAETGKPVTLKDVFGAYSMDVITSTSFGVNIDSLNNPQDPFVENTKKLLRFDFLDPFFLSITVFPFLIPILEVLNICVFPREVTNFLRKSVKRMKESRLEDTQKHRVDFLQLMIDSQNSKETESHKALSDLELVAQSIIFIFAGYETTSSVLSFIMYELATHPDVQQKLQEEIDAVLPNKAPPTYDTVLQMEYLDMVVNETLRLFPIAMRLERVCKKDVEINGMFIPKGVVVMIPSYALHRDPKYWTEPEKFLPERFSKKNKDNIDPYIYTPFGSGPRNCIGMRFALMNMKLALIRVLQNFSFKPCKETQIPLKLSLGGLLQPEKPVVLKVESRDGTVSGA

Cytochrome P450 1B1 = molecular target: T1, Cytochrome P450 1B1 (Homo sapiens, UniProt Q16678); assay: Inhibition of recombinant human CYP1B1 expressed in HEK293 cells using 7-ethoxyresorufin as substrate pretreated for 30 mins followed by substrate addition measured for 60 mins by fluorescence assay; type: cell-based
T1 sequence (Q16678 whole entry): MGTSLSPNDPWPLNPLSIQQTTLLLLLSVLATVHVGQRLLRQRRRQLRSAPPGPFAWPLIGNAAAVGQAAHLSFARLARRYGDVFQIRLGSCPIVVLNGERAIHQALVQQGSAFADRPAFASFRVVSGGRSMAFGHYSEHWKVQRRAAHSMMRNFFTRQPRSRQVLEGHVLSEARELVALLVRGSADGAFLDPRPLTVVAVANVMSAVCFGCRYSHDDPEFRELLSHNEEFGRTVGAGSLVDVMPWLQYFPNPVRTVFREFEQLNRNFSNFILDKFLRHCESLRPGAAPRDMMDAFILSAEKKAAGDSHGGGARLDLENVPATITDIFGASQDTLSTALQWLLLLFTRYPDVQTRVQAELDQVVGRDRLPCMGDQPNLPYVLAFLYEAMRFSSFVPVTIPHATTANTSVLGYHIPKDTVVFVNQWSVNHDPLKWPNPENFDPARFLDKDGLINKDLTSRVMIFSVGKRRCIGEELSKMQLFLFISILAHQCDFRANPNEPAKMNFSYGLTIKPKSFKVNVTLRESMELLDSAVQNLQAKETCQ

Homo sapiens = species on record: Homo sapiens; assay: Selectivity ratio of IC50 for recombinant human CYP1A2 expressed in HEK293 cells to IC50 for recombinant human CYP1A1 expressed in HEK293 cells; type: cell-based
Cytochrome P450 1A2 = molecular target: T2, Cytochrome P450 1A2 (Homo sapiens, UniProt P05177); assay: Inhibition of human CYP1A2 expressed in yeast cells; type: ADME, cell-based
T2 sequence (P05177 whole entry): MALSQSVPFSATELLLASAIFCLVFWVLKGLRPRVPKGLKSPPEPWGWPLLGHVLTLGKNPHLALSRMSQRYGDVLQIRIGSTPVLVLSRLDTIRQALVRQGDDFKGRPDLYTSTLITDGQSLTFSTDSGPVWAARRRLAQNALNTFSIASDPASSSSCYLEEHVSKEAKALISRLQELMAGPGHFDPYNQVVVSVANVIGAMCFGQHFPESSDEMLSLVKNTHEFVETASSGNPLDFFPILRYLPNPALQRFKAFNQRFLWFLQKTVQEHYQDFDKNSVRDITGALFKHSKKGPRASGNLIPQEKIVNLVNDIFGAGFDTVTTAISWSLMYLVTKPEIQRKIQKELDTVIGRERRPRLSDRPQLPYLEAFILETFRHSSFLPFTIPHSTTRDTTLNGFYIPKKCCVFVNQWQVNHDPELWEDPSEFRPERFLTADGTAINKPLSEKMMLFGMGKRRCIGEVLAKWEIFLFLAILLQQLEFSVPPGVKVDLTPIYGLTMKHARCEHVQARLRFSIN

Cytochrome P450 2A6 = molecular target: T3, Cytochrome P450 2A6 (Homo sapiens, UniProt P11509); assay: Inhibition of human CYP2A6 expressed in yeast cells; type: ADME, cell-based
T3 sequence (P11509 whole entry): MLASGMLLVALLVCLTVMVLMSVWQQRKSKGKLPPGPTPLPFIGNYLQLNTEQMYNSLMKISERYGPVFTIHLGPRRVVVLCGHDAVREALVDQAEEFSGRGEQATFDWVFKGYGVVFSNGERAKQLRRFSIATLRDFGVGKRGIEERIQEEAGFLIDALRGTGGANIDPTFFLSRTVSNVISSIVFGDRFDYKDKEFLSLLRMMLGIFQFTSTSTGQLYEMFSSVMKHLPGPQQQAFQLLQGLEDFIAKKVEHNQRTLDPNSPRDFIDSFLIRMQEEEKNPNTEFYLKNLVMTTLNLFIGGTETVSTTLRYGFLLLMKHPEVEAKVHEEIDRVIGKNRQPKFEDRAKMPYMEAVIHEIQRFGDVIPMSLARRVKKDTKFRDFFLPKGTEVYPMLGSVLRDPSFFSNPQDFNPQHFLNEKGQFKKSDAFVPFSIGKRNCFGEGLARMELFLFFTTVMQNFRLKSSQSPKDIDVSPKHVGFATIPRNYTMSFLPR

[1] = molecular target: T4, Aryl hydrocarbon receptor (Homo sapiens, UniProt P35869); assay: Antagonist activity at recombinant human eGFP-fused Ahr expressed in yeast cells co-expressing ARNT assessed as inhibition of benzo(a)pyrene-induced Ahr activation at 1 uM measured after 18 hrs by fluorescence assay; type: cell-based
T4 sequence (P35869 whole entry): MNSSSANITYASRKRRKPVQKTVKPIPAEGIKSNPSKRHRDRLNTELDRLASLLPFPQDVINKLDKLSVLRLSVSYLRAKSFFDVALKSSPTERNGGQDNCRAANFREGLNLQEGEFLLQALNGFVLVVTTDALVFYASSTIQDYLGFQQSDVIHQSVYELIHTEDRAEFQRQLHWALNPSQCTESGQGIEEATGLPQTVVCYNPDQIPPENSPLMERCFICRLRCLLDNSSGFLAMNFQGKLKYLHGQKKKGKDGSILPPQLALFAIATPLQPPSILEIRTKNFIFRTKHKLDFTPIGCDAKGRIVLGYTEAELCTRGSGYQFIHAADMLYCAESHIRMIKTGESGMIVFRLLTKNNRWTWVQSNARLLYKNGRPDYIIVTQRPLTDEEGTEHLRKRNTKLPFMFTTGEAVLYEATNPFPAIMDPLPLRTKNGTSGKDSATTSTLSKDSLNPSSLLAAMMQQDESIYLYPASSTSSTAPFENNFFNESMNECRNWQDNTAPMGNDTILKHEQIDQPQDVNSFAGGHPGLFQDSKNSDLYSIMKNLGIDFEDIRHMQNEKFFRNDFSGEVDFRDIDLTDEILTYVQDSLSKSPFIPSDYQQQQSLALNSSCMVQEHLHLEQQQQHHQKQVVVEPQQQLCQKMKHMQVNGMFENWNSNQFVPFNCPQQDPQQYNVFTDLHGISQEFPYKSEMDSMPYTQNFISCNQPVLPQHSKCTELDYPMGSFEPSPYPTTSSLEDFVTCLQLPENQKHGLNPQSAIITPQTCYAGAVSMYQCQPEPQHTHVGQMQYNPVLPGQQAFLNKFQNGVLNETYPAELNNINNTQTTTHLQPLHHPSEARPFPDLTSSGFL

Sequence of Cytochrome P450 2C19 (P33261 whole entry): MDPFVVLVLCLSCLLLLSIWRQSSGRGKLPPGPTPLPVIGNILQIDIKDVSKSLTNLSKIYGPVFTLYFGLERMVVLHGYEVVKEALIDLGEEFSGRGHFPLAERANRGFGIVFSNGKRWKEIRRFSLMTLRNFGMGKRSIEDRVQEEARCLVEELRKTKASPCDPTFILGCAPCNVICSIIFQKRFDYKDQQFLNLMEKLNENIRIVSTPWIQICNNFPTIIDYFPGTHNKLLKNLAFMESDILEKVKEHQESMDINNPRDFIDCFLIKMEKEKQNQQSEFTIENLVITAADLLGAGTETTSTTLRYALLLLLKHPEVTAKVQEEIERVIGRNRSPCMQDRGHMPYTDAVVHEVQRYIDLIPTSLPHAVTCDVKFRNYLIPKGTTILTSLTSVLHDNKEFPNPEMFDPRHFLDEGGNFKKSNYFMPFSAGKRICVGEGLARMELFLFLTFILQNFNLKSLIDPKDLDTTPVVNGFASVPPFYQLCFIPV

Question: Which IC50 (Cytochrome P450 2C19) does the source give for `COc1cc(/C=C/C(=O)c2ccncc2)cc(OC)c1OC` here?
Answer: > 20 µM

Question: What about the IC50 (Cytochrome P450 3A4) of the same compound?
Answer: > 20 µM

Question: And the IC50 (Cytochrome P450 1B1)?
Answer: 8.18 µM

Question: And the Ratio IC50 (Homo sapiens)?
Answer: < 10

Question: What about the IC50 (Cytochrome P450 1A2) of the same compound?
Answer: 1.82 µM

Question: What about the IC50 (Cytochrome P450 2A6) of the same compound?
Answer: > 10 µM

Question: And the “inhibition (INH)” value [1]?
Answer: Active
